Like-named read-outs stand apart in the source and are kept apart here.
Experiments:
human MMP13 [1] = molecular target: T1, human MMP13 (Homo sapiens (Human), UniProt P45452); assay: hMMP13 assay, Protocol 1 (390 MMP FRET Substrate I, Chemicon enzyme); type: biochemical; settings: Protocol 1, human MMP13 (Chemicon), read-out: hMMP-13 potency IC50
Protocol: (§1) Human MMP13 is preactivated by incubated the enzyme in the same buffer complemented with 1 mM freshly prepared p-Aminophenylmercuric acetate (AMPA) for 1 h at 37° C.

human TACE = human TACE (Homo sapiens (Human), UniProt P78536); assay: biochemical
human TACE, sequence (P78536 215-671): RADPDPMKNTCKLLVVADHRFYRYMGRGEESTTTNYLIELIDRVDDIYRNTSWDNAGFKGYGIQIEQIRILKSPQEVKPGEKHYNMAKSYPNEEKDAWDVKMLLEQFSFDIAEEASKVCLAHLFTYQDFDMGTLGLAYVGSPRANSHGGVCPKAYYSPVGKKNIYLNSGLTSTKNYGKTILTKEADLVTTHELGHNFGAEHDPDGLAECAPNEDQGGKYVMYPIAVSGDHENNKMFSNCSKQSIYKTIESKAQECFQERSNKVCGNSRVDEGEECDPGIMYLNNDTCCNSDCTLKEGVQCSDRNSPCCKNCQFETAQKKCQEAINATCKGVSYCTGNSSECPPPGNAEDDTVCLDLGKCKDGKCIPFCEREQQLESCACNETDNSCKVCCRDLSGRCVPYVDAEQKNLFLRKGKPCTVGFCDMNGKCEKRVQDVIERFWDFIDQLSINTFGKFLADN
Protocol: Finally, the fluorescence is read on the Envision (Perkin Elmer) after an incubation of 75 min at room temperature (Excitation 485 nm, Emission 530).

human MMP14 = human MMP14 (Homo sapiens (Human), UniProt P50281); assay: hMMP14 assay (390 MMP FRET Substrate I); type: biochemical; settings: human MMP14 (Biomol), read-out: hMMP-14 potency IC50
Protocol: The basis for the assay is the cleavage of the substrate 390 MMP FRET Substrate I (Anaspec Cat #AS-27076) by human MMP14 (Biomol, Cat #SE-259).
The reaction is initiated by adding to the assay plate 390 MMP FRET Substrate I (10 μL, 2.5 μM) in the same buffer.
Finally, the fluorescence is read on the Envision (Perkin Elmer) after an incubation of 60 min at room temperature (Excitation 485 nm, Emission 530).

human ADAMTS6 = human ADAMTS6 (Homo sapiens (Human), UniProt Q9UKP5); assay: hADAMTS-6 fluorescent based protease assay (520 MMP FRET substrate XII); type: biochemical; settings: 37° C. for 2 h; read-out: hADAMTS-6 potency IC50
human ADAMTS6, sequence (Q9UKP5 other isoform, or with tags, fused parts or gaps): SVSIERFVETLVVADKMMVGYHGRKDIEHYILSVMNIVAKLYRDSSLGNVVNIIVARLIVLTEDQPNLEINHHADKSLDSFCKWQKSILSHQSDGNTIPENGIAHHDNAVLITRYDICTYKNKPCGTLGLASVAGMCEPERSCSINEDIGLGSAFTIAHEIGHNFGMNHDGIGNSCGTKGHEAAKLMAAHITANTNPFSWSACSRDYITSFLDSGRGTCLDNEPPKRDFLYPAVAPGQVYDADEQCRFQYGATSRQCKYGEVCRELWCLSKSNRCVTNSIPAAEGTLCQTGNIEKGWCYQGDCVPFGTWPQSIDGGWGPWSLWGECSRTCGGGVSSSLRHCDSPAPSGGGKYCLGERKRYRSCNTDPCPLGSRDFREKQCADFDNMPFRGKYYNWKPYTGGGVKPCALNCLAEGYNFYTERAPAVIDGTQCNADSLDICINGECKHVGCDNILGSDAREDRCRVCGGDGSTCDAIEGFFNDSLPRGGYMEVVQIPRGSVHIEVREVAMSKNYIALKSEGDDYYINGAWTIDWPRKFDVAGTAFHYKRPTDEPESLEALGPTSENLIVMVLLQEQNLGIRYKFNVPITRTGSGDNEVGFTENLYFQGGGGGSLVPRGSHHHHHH
Protocol: The IC50 value for test compounds can be determined in a fluorescent based protease assay.
The substrate contains sequence Arg-Pro-Lys-Pro-Tyr-Ala-Nva-Trp-Met-Lys (SEQ ID NO: 7) with attached a fluorescent probe and a quencher. Without ADAMTS6, the emission of the probe is quenched. If the substrate is cleaved by ADAMTS6, the emission of the probe is not quenched anymore. Inhibition of ADAMTS6 activity, will result in a decrease of the signal.
To perform the assay, 4 μL of a dilution series of compound in water, starting from 20 μM highest concentration, ⅕ dilution, is added to the wells. 2 ng ADAMTS6 enzyme is diluted in 25 mM Tris pH8.0, 0.05% CHAPS, 2.5 mM CaCl2 in a total volume of 26 μL (final concentration 0.73 nM). The reaction is started by addition of 10 μL of 1 μM 520 MMP FRET Substrate XII (final concentration, diluted in same buffer as described above) and the mixture is incubated at 37° C. for 2 h. […] After this incubation, cleavage of the substrate is measured using the Envision (Perkin Elmer, exc485/em530).

human ADAMTS4 = human ADAMTS4 (Homo sapiens (Human), UniProt O75173); assay: hADAMTS-4 TBIS-1 cleavage assay, Protocol 2; type: biochemical
human ADAMTS4, sequence (O75173 213-837): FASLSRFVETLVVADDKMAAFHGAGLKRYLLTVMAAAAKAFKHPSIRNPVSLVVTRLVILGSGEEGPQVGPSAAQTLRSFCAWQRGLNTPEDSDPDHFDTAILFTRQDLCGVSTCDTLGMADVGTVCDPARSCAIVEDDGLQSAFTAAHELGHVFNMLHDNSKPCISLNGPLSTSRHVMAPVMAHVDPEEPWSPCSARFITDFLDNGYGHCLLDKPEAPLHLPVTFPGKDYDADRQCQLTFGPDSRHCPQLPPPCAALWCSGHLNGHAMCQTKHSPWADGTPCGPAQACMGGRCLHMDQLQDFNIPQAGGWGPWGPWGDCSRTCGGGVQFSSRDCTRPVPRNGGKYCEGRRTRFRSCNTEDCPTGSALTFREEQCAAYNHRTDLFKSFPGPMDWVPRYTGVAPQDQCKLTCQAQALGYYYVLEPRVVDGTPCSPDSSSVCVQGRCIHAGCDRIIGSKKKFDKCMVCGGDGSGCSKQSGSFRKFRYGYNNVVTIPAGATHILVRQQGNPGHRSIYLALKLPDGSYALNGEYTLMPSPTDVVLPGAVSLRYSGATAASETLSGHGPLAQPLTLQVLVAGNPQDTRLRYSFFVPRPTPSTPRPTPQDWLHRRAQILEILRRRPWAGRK

human ADAMTS-5 = human ADAMTS-5 (Homo sapiens (Human), UniProt Q9UNA0); assay: hADAMTS-5 TBIS-1 cleavage assay, Protocol 3; type: biochemical; settings: 90 min at 37° C., read-out: hADAMTS-5 potency IC50
human ADAMTS-5, sequence (Q9UNA0 262-930): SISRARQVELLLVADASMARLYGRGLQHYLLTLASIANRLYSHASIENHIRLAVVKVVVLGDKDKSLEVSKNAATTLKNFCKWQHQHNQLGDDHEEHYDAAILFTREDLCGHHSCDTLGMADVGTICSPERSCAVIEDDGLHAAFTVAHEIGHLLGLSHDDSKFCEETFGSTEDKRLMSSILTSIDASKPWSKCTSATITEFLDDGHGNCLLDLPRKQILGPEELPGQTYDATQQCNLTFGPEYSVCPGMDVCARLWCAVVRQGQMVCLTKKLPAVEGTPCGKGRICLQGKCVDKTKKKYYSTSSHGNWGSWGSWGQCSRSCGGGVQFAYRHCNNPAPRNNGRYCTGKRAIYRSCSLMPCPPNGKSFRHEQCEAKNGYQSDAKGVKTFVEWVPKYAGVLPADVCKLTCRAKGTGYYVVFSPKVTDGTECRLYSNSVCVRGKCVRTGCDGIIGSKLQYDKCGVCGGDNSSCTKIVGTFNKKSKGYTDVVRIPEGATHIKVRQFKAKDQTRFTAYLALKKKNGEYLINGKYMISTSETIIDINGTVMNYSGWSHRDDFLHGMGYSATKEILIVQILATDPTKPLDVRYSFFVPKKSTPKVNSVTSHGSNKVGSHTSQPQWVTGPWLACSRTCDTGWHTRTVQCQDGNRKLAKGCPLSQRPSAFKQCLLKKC
Protocol: The reaction is initiated by adding to the assay plate TBIS-1 (10 μL, 4.5 μM, Anaspec) in the same buffer.
Finally, the fluorescence is read on the Envision (Perkin Elmer) after an incubation of 90 min at 37° C. (Excitation 485 nm, emission 530).

human MMP13 [2] = molecular target: T1, human MMP13; assay: hMMP13 assay, Protocol 2 (390 MMP FRET Substrate I, Enzo enzyme); type: biochemical; settings: Protocol 2, human MMP13 (Enzo Life Sciences), read-out: hMMP-13 potency IC50
Protocol: as §1

[3] = Protocol 2, 180 min at 37° C., read-out: ADAMTS4 potency IC50

Row | IC50 (human MMP13 [1]) [nM] | IC50 (human TACE) [nM] | IC50 (human MMP14) [nM] | IC50 (human ADAMTS6) [nM] | IC50 (human ADAMTS-5) [nM] | IC50 (human MMP13 [2]) [nM] | IC50 (human ADAMTS4; [3]) [nM] | SMILES | IC50 (human ADAMTS4) [nM]
1 | – | > 100 | > 100 | 0.001 to 25 | 50 to 100 | > 100 | > 100 | CCc1cc(N2CCN(C(=O)[C@@H](C)C[C@@]3(COC)NC(=O)NC3=O)C[C@@H]2C)cc(OC)c1Cl (mixture of isomers) [Cpd 117, 5-[3-[(3S)-4-(4-chloro-3-ethyl-5-methoxy-phenyl)-3-methyl-piperazin-1-yl]-2-methyl-3-oxo-propyl]-5-(methoxymethyl)imidazolidine-2,4-dione] | –
2 | – | > 100 | > 100 | 50 to 100 | 50 to 100 | > 100 | > 100 | COc1cncc(N2CCN(C(=O)[C@@H](C)C[C@@]3(C4CC4)NC(=O)NC3=O)C[C@@H]2C)c1 (stereo in doubt) [Cpd 64, 5-cyclopropyl-5-[3-[(3 S)-4-(5-methoxy-3-pyridyl)-3-methyl-piperazin-1-yl]-2-methyl-3-oxo-propyl]imidazolidine-2,4-dione] | –
3 | – | – | – | 0.001 to 25 | – | > 100 | > 100 | CCc1cc(N2CCN(C(=O)[C@@H](C)C[C@@]3(COC)NC(=O)NC3=O)C[C@@H]2C)ccc1Cl (stereo in doubt) [Cpd 124, 5-[3-[(3S)-4-(4-chloro-3-ethyl-phenyl)-3-methyl-piperazin-1-yl]-2-methyl-3-oxo-propyl]-5-(methoxymethyl)imidazolidine-2,4-dione] | –
4 | – | – | – | 0.001 to 25 | – | > 100 | > 100 | CC(C)c1cc(N2CCN(C(=O)CC[C@@]3(C)NC(=O)NC3=O)C[C@@H]2C)ccc1Cl [Cpd 85, (5R)-5-[3-[(3 S)-4-(4-chloro-3-isopropyl-phenyl)-3-methyl-piperazin-1-yl]-3-oxo-propyl]-5-methyl-imidazolidine-2,4-dione] | –
5 | – | – | – | 0.001 to 25 | – | > 100 | > 100 | CCc1cc(N2CCN(C(=O)CCC3(CCC(=O)OC(C)(C)C)NC(=O)NC3=O)C[C@@H]2C)ccc1Cl (stereo partly drawn) [Cpd 114, tert-butyl 3-[4-[3-[(3S)-4-(4-chloro-3-ethyl-phenyl)-3-methyl-piperazin-1-yl]-3-oxo-propyl]-2,5-dioxo-imidazolidin-4-yl]propanoate] | –
6 | – | – | – | 0.001 to 25 | – | > 100 | > 100 | CCc1cc(N2CCN(C(=O)CCC3(CCC(=O)O)NC(=O)NC3=O)C[C@@H]2C)ccc1Cl (stereo partly drawn) [Cpd 116, 3-[4-[3-[(3 S)-4-(4-chloro-3-ethyl-phenyl)-3-methyl-piperazin-1-yl]-3-oxo-propyl]-2,5-dioxo-imidazolidin-4-yl]propanoic acid] | –
7 | > 100 | > 100 | – | 50 to 100 | > 100 | – | > 100 | COc1cc(N2CCN(C(=O)CC[C@H]3NC(=O)NC3=O)CC2)cc(F)c1F [Cpd 128, (5R)-5-[3-[4-(3,4-difluoro-5-methoxy-phenyl)piperazin-1-yl]-3-oxo-propyl]imidazolidine-2,4-dione] | –
8 | > 100 | > 100 | – | 0.001 to 25 | > 100 | – | > 100 | COc1cc(N2CCN(C(=O)CC[C@H]3NC(=O)NC3=O)CC2)cc(F)c1Cl [Cpd 143, (5R)-5-[3-[4-(4-chloro-3-fluoro-5-methoxy-phenyl)piperazin-1-yl]-3-oxo-propyl]imidazolidine-2,4-dione] | –
9 | > 100 | > 100 | > 100 | 0.001 to 25 | 50 to 100 | – | > 100 | COc1cc(N2CCN(C(=O)CC[C@H]3NC(=O)NC3=O)CC2)cc(Cl)c1Cl [Cpd 145, (5R)-5-[3-[4-(3,4-dichloro-5-methoxy-phenyl)piperazin-1-yl]-3-oxo-propyl]imidazolidine-2,4-dione] | –

Continued, compound first:

Row | SMILES | IC50 (human MMP13 [1]) [nM] | IC50 (human TACE) [nM] | IC50 (human MMP14) [nM] | IC50 (human ADAMTS6) [nM] | IC50 (human ADAMTS-5) [nM] | IC50 (human MMP13 [2]) [nM] | IC50 (human ADAMTS4; [3]) [nM] | IC50 (human ADAMTS4) [nM]
10 | COCC1(CC(C)C(=O)N2CCN(c3ccc(Cl)c(OC)c3)[C@@H](C)C2)NC(=O)NC1=O (mixture of isomers) [Cpd 47, 5-[3-[(3S)-4-(4-chloro-3-methoxy-phenyl)-3-methyl-piperazin-1-yl]-2-methyl-3-oxo-propyl]-5-(methoxymethyl)imidazolidine-2,4-dione] | > 100 | > 100 | > 100 | 0.001 to 25 | 25 to 50 | – | – | 25 to 50
11 | COC[C@]1(C[C@H](C)C(=O)N2CCN(c3cc(F)c(Cl)c(OC)c3)[C@@H](C)C2)NC(=O)NC1=O (mixture of isomers) [Cpd 121, 5-[3-[(3S)-4-(4-chloro-3-fluoro-5-methoxy-phenyl)-3-methyl-piperazin-1-yl]-2-methyl-3-oxo-propyl]-5-(methoxymethyl)imidazolidine-2,4-dione] | – | > 100 | > 100 | 0.001 to 25 | 25 to 50 | > 100 | – | 50 to 100
12 | COc1cc(N2CCN(C(=O)C(C)CC3(C)NC(=O)NC3=O)C[C@@H]2C)cc(C)c1Cl (mixture of isomers) [Cpd 125, 5-[3-[(3S)-4-(4-chloro-3-methoxy-5-methyl-phenyl)-3-methyl-piperazin-1-yl]-2-methyl-3-oxo-propyl]-5-methyl-imidazolidine-2,4-dione] | – | > 100 | > 100 | 0.001 to 25 | 25 to 50 | > 100 | – | 50 to 100
13 | COc1cc(N2CCN(C(=O)[C@@H](C)C[C@H]3NC(=O)NC3=O)CC2)cc(F)c1F (stereo in doubt) [Cpd 51, 5-[3-[4-(3,4-difluoro-5-methoxy-phenyl)piperazin-1-yl]-2-methyl-3-oxo-propyl]imidazolidine-2,4-dione] | – | > 100 | > 100 | 0.001 to 25 | > 100 | > 100 | > 100 | –
14 | COc1cc(N2CCN(C(=O)[C@@H](C)C[C@@]3(C)NC(=O)NC3=O)C[C@@H]2C)cc(F)c1Cl (stereo in doubt) [Cpd 120, 5-[3-[(3S)-4-(4-chloro-3-fluoro-5-methoxy-phenyl)-3-methyl-piperazin-1-yl]-2-methyl-3-oxo-propyl]-5-methyl-imidazolidine-2,4-dione] | – | > 100 | > 100 | 0.001 to 25 | 0.001 to 25 | > 100 | – | 50 to 100
15 | COc1cc(N2CCN(C(=O)CC[C@@]3(C)NC(=O)NC3=O)CC2)cc(F)c1F [Cpd 20, (R)-5-[3-[4-(3,4-difluoro-5-methoxy-phenyl)piperazin-1-yl]-3-oxo-propyl]-5-methyl-imidazolidine-2,4-dione] | > 100 | > 100 | – | 0.001 to 25 | > 100 | – | > 100 | –
16 | COc1cc(N2CCN(C(=O)CCC3(C)NC(=O)NC3=O)C[C@@H]2C)cc(F)c1F (stereo partly drawn) [Cpd 22, 5-[3-[(3 S)-4-(3,4-difluoro-5-methoxy-phenyl)-3-methyl-piperazin-1-yl]-3-oxo-propyl]-5-methyl-imidazolidine-2,4-dione] | > 100 | > 100 | – | 0.001 to 25 | > 100 | – | > 100 | –
17 | COc1cc(N2CCN(C(=O)CCC3(C)NC(=O)NC3=O)CC2)cc(Cl)c1Cl (stereo not drawn) [Cpd 48, 5-[3-[4-(3,4-dichloro-5-methoxy-phenyl)piperazin-1-yl]-3-oxo-propyl]-5-methyl-imidazolidine-2,4-dione] | > 100 | > 100 | > 100 | 0.001 to 25 | 50 to 100 | – | > 100 | –
18 | COc1cc(N2CCN(C(=O)CCC3(C)NC(=O)NC3=O)CC2)cc(Cl)c1F (stereo not drawn) [Cpd 50, 5-[3-[4-(3-chloro-4-fluoro-5-methoxy-phenyl)piperazin-1-yl]-3-oxo-propyl]-5-methyl-imidazolidine-2,4-dione] | > 100 | > 100 | – | 0.001 to 25 | > 100 | – | > 100 | –
19 | COc1cc(N2CCN(C(=O)CC[C@@]3(C)NC(=O)NC3=O)C[C@@H]2C)ccc1Cl [Cpd 55, (5R)-5-[3-[(3 S)-4-(4-chloro-3-methoxy-phenyl)-3-methyl-piperazin-1-yl]-3-oxo-propyl]-5-methyl-imidazolidine-2,4-dione] | – | > 100 | > 100 | 0.001 to 25 | 50 to 100 | > 100 | > 100 | –
20 | COc1cc(Cl)c(C)cc1N1CCN(C(=O)CCC2(C)NC(=O)NC2=O)CC1 (stereo not drawn) [Cpd 58, 5-[3-[4-(4-chloro-2-methoxy-5-methyl-phenyl)piperazin-1-yl]-3-oxo-propyl]-5-methyl-imidazolidine-2,4-dione] | – | > 100 | – | 25 to 50 | > 100 | > 100 | > 100 | –
